Test results: EPA's aquatic toxicity sets

These molecules were tested on Tetrahymena pyriformis (assay: 48 h IGC50 (-log10 mol/L); higher = more toxic).

SMILES | 48 h IGC50 (-log10 mol/L)
CCCCC/C=C/C(C)=O | 3.98
OCc1c(F)c(F)c(F)c(F)c1F | 2.8
CCCCCC#CC(=O)OC | 4.04
CC(C)CN | 2.74
Nc1ccccc1I | 3.35
C/C=C/COC(C)=O | 2.13
OCc1cccc(Cl)c1 | 3.15
COC(=O)CCCCCCCCC(=O)OC | 4.01
O=C(O)c1cc(Br)cc(Br)c1 | 3.46
COc1ccc(C(C)=O)cc1 | 2.87
O=Cc1cc(O)c(O)c(O)c1 | 2.8
O=Cc1ccccc1Br | 3.48
c1ccc2c(c1)ccc1cccnc12 | 4.31
C=CCC(C)O (centres undefined) | 1.48
Cc1ccnc(C)c1 | 2.35
C=COC(=O)C=C | 4.42
CCNC(C)=O | 1.3
CC/C=C/C=C/C=O | 3.86
O=C1CCC(=O)CC1 | 1.33
CC(C)CC#N | 2.12
CCCCCC#CC(=O)O | 2.94

SMILES | 48 h IGC50 (-log10 mol/L)
C#CC(C)=O | 4.96
CCCCCOC(C)=O | 3.16
CCCCC#N | 1.99
Cc1nc2ccccc2nc1C | 3.25
O=[N+]([O-])c1cccc(-c2ccccc2)c1 | 4.57
COP(=O)(OC)OC | 1.18
CCC(C)CO (centres undefined) | 2.05
O=C(Oc1ccccc1)c1ccccc1 | 4.35
Cc1ccc(C)c(O)c1 | 3.14
CCCOc1ccc(O)cc1 | 3.52
O=[N+]([O-])/C=C/c1ccco1 | 5.04
CCOC(=O)CCCCCCC(=O)OCC | 3.7
Oc1c(F)c(F)c(F)c(F)c1F | 4.63
CCC=CCCC=CC=O | 4.34
CCCCCC#CCCO | 3.34
Cc1cc2ccccc2n1C | 3.84
CS(C)=O | 0.548
N#Cc1cccs1 | 2.24
CCOC(=O)C(Br)(Br)C(=O)OCC | 5.14
COc1cc(C=O)cc(OC)c1O | 3.17
Clc1sccc1Br | 3.73

SMILES | 48 h IGC50 (-log10 mol/L)
CCCC(N)CO (centres undefined) | 2.33
CCCCCCCCCC(C)O (centres undefined) | 4.58
CC=CC(C)O (centres undefined) | 1.6
Oc1ccc(N=Nc2ccccc2)cc1 | 4.66
CCCC/C=C/C=O | 4.05
CCCCCCC#CCO | 3.65
Cc1ccc(O)cc1[N+](=O)[O-] | 3.74
Cc1ccc(N)cc1C | 2.84
CCCCCCCCC(O)CO (centres undefined) | 3.76
CCC(=O)OC(C)(C)C | 2.59
NC(=O)CCl | 3.04
CCCCC/C=C/C(=O)OC | 3.77
CCCCCCCCCCC(C)O (centres undefined) | 4.66
NC(=S)NCc1ccccc1 | 3.66
CCCCCc1cccs1 | 4.2
CCCCOc1ccc(C=O)cc1 | 3.72
NNC(=O)Cc1ccccc1 | 2.52
CC(C)c1ccccc1N | 3.12
O=C(O)CCCCCCCBr | 4.32
N#C/C=C/c1ccccc1 | 3.16
O=[N+]([O-])c1cccc2ncccc12 | 3.39

SMILES | 48 h IGC50 (-log10 mol/L)
CC(=O)C(Cl)Cl | 3.64
O=[N+]([O-])c1cc(CO)cc([N+](=O)[O-])c1 | 3.53
C=CCOC(=O)C=C | 3.68
CC(C)CCBr | 3.25
CCOC(=O)c1ccc(Cl)cc1 | 3.75
CC(Br)C#N (centres undefined) | 3.63
O=[N+]([O-])c1cc(O)ccc1Cl | 4.27
C=CCS(=O)(=O)c1ccccc1 | 3.31
CCCCCCCC#N | 3.28
C=COC(=O)CCCCC | 3.08
CC(C)CCOC(=O)c1ccc(O)cc1 | 4.48
NC(=O)c1ccccc1[N+](=O)[O-] | 2.28
CC(C)(C)c1ccc(O)c(N)c1 | 3.37
CC(O)CBr (centres undefined) | 1.81
NC(=S)c1ccccc1 | 3.09
O=C(NO)c1ccccc1O | 3.38
CCOC(=O)c1ccc(I)cc1 | 4.53
CC1CCCCC1=O (centres undefined) | 2.19
CCCNC(N)=S | 2.31
Cc1ccc(N)c(Cl)c1 | 3.18
O=Nc1ccc(O)cc1 | 3.65
